How the values were obtained:
[1] = tested on: normal DB rabbits; assay: Visual Enhancement Model (sweep visual evoked potential acuity); type: in vivo, rabbit; settings: pigmented (Dutch-Belted) rabbits, intravenous route, 10-30 minutes post-dose, conscious animals, bilateral recordings
Procedure: Spatial sweep visual evoked potential (sVEP) acuity is assessed with PowerDiva software version 1.8. Recordings were made bilaterally in conscious animals.

[2] = tested on: blue light model of retinal degeneration in rats; assay: The Blue Light Model of retinal degeneration; type: in vivo, rat; settings: male Sprague Dawley rats, subcutaneous infusion pumps 1 mg/kg/day starting two days before blue light (4 hours, 6100-6500 lux), OCT at 7 days post exposure
Procedure: Pro-drug iso-Butyric acid 3-[(S)-1-(1H-imidazol-4-yl)-ethyl]-2-methyl-benzyl ester is evaluated in the blue light model of retinal degeneration in rats. The drugs is administered continuously with subcutaneous infusion pumps at a dose of 1 mg/kg/day starting two days before blue light exposure. Twenty 4-month old male Sprague Dawley rats (body weight 470-550 g) were used in this study. The animals were exposed to room light on a 12 hour light/12 hour dark cycle before the experiment. All animals were dark adapted overnight (16-20 hours) before blue light. Under the intensity of 6100-6500 lux, rats were exposed to blue light for 4 hours. After the blue light, rats were placed in the dark for another 3 days before returning to normal 12 hour light/12 hour dark. Ocular Coherence Tomography (OCT) measurement was performed at 7 days post blue light exposure.

Compound	Spatial sweep visual evoked potential (sVEP) acuity [1]	retinal thickness measured by OCT after blue light exposure [2]
Cc1c(COC(=O)C(C)C)cccc1[C@H](C)c1c[nH]cn1 [Compound 1, iso-Butyric acid 3-[(S)-1-(1H-imidazol-4-yl)-ethyl]-2-methyl-benzyl ester]	enhances visual acuity	significantly reduced the damage caused by blue light
Brc1c(NC2=NCCN2)ccc2nccnc12 [Brimonidine, reference compound]		did not prevent the change in retinal thickness
